# In patent publication US20250283074A1, “CLUSTERIN OVEREXPRESSION IN ALZHEIMER’S DISEASE” (University of Virginia Patent Foundation, priority 2021, published 2025):
# “Also recorded” adds a separate entry of the source.
# B1: IFNγ: cytokine upregulated in Alzheimer's disease, 10 ng/ml (protein, UniProt P01579 24-161, looked up)
# Interferon gamma: QDPYVKEAENLKKYFNAGHSDVADNGTLFLGILKNWKEESDRKIMQSQIVSFYFKLFKNFKDDQSIQKSVETIKEDMNVKFFNSNKKKRDDFEKLTNYSVTDLNVQRKAIHELIQVMAELSPAAKTGKRKRSQMLFRG
# Key:
# APP/PS1 model of AD = details: cited from earlier work
# [1] = test system: clusterin expression in the corpus callosum; assay: Cuprizone model of demyelination, clusterin immunofluorescence in the corpus callosum; format: in vivo; details: 5 weeks cuprizone diet then 1 week normal chow vs naïve mouse
# Description: FIG. 9A is a photomicrograph showing clusterin expression (white) in the corpus callosum of a naïve mouse and a mouse following 5-weeks of cuprizone diet followed by 1-week of normal chow to allow remyelination to begin. FIG. 9B is a bar graph showing quantification of clusterin coverage of the corpus callosum depicted in FIG. 9A. N=1 independent experiment, n=5 mice per group. Data analyzed using an unpaired t-test. ***p<0.001. Error bars represent standard error of the mean.
# Based on preliminary data, it is anticipated that genetic and the therapeutic silencing of clusterin ameliorate the pathology observed in the 5×FAD mice. If a difference in the number of oligodendrocytes and myelination is undetected, the 5×FAD are tested with the cuprizone model of demyelination. Diet supplemented with cuprizone (5 weeks at 0.3% w/w) induces extensive demyelination of the medial corpus callosum (Doucette et al., 2010). However, demyelination induced in this manner is reversible, as remyelination occurs following the removal of the drug. […] Sections of the medial corpus callosum (midline region above the for mix and between the lateral ventricles) are stained as proposed herein above to quantify OPCs and oligodendrocytes at the end of cuprizone treatment as well as 0.5, 1, 1.5, and 2 weeks following the removal of cuprizone, as described (see Fernandez-Castaneda et al., 2020).
# [2] = test system: clusterin expression in OPCs; assay: Clusterin expression in treated primary OPCs by qPCR; format: cell-based, mouse; details: for effect of phagocytosis block on clusterin upregulation by myelin debris or apoptotic cells in OPCs: Cytochalasin D 1 μM with 100 μg/ml myelin debris; for clusterin expression in OPCs by qPCR (FIG. 7): 10 ng/ml TNFα 3 h, 10 μM H2O2 3 h, 3 μM Aβ 2 h, apoptotic cells 1:1 6 h, 100 μg/ml myelin debris 4 h; for clusterin expression in OPCs by qPCR (FIG. 12): 4-hour in vitro treatment: 3 μM Aβ, 100 μg/ml myelin, 10 ng/ml TNFα or IFNγ, 10 μM H2O2
# Method: FIGS. 7A-7F: Macromolecules and protein aggregates cause OPCs to upregulate clusterin. OPCs treated with 10 ng/ml TNFα for 3 hours (FIG. 7A), 10 μM H2O2 for 3 hours (FIG. 7B), 3 μM […] for 2 hours (FIG. 7C), a 1:1 ratio of apoptotic cells for 6 hours (FIG. 7D), 100 μg/ml myelin debris for 4 hours (FIG. 7E), or 100 μg/ml myelin debris and 1 μM Cytochalasin D for 4 hours (FIG. 7F). Clusterin transcript quantity was measured using qPCR. N=1-2 independent experiments. n=4-8 samples/condition. All data was analyzed using a repeated measures t-test. ns: not significant; CytoD: Cytochalasin D. *p<0.05, **p<0.01.
# FIGS. 12A-12I: Phagocytosis of extracellular debris drives clusterin expression in OPCs. FIG. 12A. Representative images of OPCs (PDGFRα in green, Olig2 in red) surrounding Aβ plaques (n=4; Scale bar=20 μm). FIG. 12B. Representative orthogonal view of CypHer-labeled Aβ (white) inside an OPC (PDGFRα in green. Olig2 in red) following injection of Aβ (n=6; Scale bar=10 μm). Representative images (FIG. 12C) and quantification (FIG. 12D) of clusterin expression (red) in the ipsilateral (CypHer-Aβ injected: green) and contralateral (FITC injected; green) hemispheres following injection (n=6 mice: Scale bar=100 μm) FIG. 12E. qPCR analysis of clusterin expression in OPCs following a 4-hour in vitro treatment with 3 μM Aβ and the phagocytosis blocker CytoD (1 μM) or vehicle control (n=24). f, Quantification of clusterin protein in OPCs following 72-hour treatment with 3 μM Aβ or vehicle control (n=10). qPCR analysis of clusterin expression in OPCs following a 4-hour in vitro treatment with 100 μg/ml myelin (FIG. 12G), cytokines (10 ng/ml TNFα or 10 ng/ml IFNγ; FIG. 12H) or 10 μM H2O2 (FIG. 12I) and CytoD (1 μM) or vehicle control (n=4-19).
# Oligomeric […] Drives Expression of Clusterin in OPCs Given the impact of clusterin on OPCs differentiation in vitro, and the evidence supporting that myelin is impacted in AD (Roher et al., 2002; Desai et al., 2009; Desai et al., 2010; Zhan et al., 2014), we wanted to understand what factors initiate expression of clusterin in OPCs. We treated primary OPCs with TNFa, H2O2, oligomeric Aβ, myelin debris, and apoptotic cells and monitored expression of clusterin by qPCR. These treatments were selected because of their association with AD pathology (Sengupta et al., 2016; Ahmad et al., 2017; Chang et al., 2017). […] In order to test if phagocytosis was required to mediate the upregulation of clusterin, the same experiment was repeated in the presence of Cytochalasin D to block actin polymerization and prevent engulfment (Axline & Reaven, 1974; Soldati & Schliwa, 2006).
# We next investigated whether Aβ treatment increases clusterin expression in OPCs. […] We noted that increase in clusterin expression was not specific to the phagocytic clearance of Aβ oligomers, as we also observed it when OPCs engulfed cellular debris.
# OPCs (OLIG2+/PDGFRα+) = assay: Tamoxifen-induced YFP labelling of OPCs in PDGFRα-CreER; R26-EYFP reporter mice; format: in vivo, mouse; details: 2 tamoxifen injections 3 days apart, counted ten days after the first injection, adult mice
# Method: FIG. 1A is a representative image of YFP labeled OPCs (PDGFRα+Olig2+) cells following 2 tamoxifen injections. […] FIG. 1B is a graph of percent of OPCs expressing YFP following 0, 1, 2, or 3 tamoxifen injections. Each injection was given 3 days apart. n=2-3 mice/group.
# To investigate the optimal dose of tamoxifen required for the reporter expression, we treated adult mice (6 weeks old) with 1, 2, or 3 tamoxifen injections (each injection was administered 3 days apart) and counted the number of YFP positive OPCs (OLIG2+/PDGFRα+) ten days after the first injection (see FIG. 1B).
# clusterin = details: patients with prostate cancer, Phase 3 clinical trial; cited from earlier work
# OPCs [3] = assay: OPC differentiation into oligodendrocytes, myelin marker expression by qPCR; format: cell-based, mouse; details: differentiating conditions, 3 days
# Method: (§1) FIGS. 13A-13G: Exogenous clusterin inhibits OPC differentiation. Expression of Mbp (FIG. 13A), Plp1 (FIG. 13B), Cnp (FIG. 13C), and Myrf (FIG. 13D), measured by qPCR in OPCs or OLGs treated with vehicle or 8 μg/ml of clusterin for 72 hours (n=7). Representative images (FIG. 13E) and quantification (FIG. 13F) of MBP expression in cells treated with or without 8 μg/ml of clusterin for 72 hours (n=5: Scale bar=50 μm). FIG. 13G. Quantification of OPCs viability following a 72 hours incubation with or without 8 μg/ml clusterin (n=11).
# (§2) FIGS. 14A-14D: Clusterin inhibits differentiation by blocking IL-9 production. FIG. 14A. Quantification of cytokines present in the supernatant from OPCs treated with 8 μg/mL clusterin or vehicle control (n=6). Expression of Mbp (FIG. 14B), Plp1 (FIG. 14C), and Myrf (FIG. 14D), measured by qPCR in OPCs cultured in proliferation media (OPC Vehicle), differentiation media supplemented with vehicle (OLG Vehicle), or 8 μg/ml of is clusterin (OLG CLU), or 100 ng/ml IL-9 (OLG IL-9), or 8 μg/ml of clusterin and 100 ng/ml IL-9 (OLG CLU+IL-9) for 72 hours (n=11).
# OPCs were prepared from neurospheres as previously described (Franco et al., 2015) and subsequently switched into differentiating conditions in the presence of recombinant clusterin (8 μg/ml) or vehicle (PBS) for 3 days. […]
# IL-9 secretion by OPCs = assay: Luminex Assay on the supernatant of OPCs (cytokine and growth factor secretion); format: cell-based, mouse; details: clusterin 8 μg/mL vs vehicle
# Method: as §2
# We next investigated what factors might be mediating clusterin's inhibition of OPC differentiation.
# To identify whether clusterin can modify the composition of the OPC secretome, an unbiased multiplex analysis on the conditioned media of OPCs treated with vehicle or clusterin for 1-3 days was performed. […] IL-9 is a growth factor for T-cell subsets 64, and IL-9 receptor is expressed by OPCs in vivo. However, production and secretion of IL-9 by OPCs has not been previously reported.
# OPCs [4] = assay: OPC differentiation, MBP positive oligolineage cells by immunofluorescence; format: cell-based, mouse; details: clusterin 8 μg/ml, 72 hours, differentiation media
# Method: (§3) FIGS. 6A-6D: Clusterin inhibits OPC differentiation. FIG. 6A is a series of bar graphs showing expression of Mbp, Pip1, Cnp, and Myrf, measured by qPCR in cells cultured in proliferation media (OPC_Veh), differentiation media (OLG_Veh), or differentiation media supplemented with 8 μg/ml of clusterin (OLG_Clu). Data was analyzed using a mixed-effects analysis followed by a Tukey's multiple comparisons test. N=3 individual experiments, n=7 samples per group. FIG. 6B is a series of representative fluorescence micrograph images of cells cultured in differentiation media (Vehicle) or differentiation media supplemented with 8 μg/ml of clusterin (Clusterin). […] FIG. 6C is a bar graph of the quantification of the differentiation efficiency of cells depicted in FIG. 6B. […] Data was is analyzed using a repeated measures t-test. […]
# as §1, with “FIG. 13G.” left out, “(n=11). […]” for “(n=11).”
# OPCs [5] = assay: OPC viability, CCK8 assay; format: cell-based, mouse; details: clusterin 8 μg/ml, 72 hours
# Method: as §3
# as §1, with “FIG. 13G.” left out, “(n=11). […]” for “(n=11).”
molecule,measurement,setting,value
CN1CCC[C@@H]1CCO[C@](C)(c1ccccc1)c1ccc(Cl)cc1 [Clemastine],myelin integrity and memory performance,APP/PS1 model of AD,improved both myelin integrity and memory performance
O=C(NN=C1CCCCC1)C(=O)NN=C1CCCCC1 [Cuprizone],clusterin expression in the corpus callosum,[1],upregulated
C=C1[C@@H](C)[C@H]2[C@H](Cc3ccccc3)NC(=O)[C@]23[C@H](OC(C)=O)/C=C/[C@@](C)(O)C(=O)[C@@H](C)C/C=C/[C@H]3[C@@H]1O [Cytochalasin D],effect of phagocytosis block on Aβ-induced clusterin upregulation in OPCs,"[2]; CytoD 1 μM with 3 μM Aβ, 4 hours",prevented Aβ from increasing clusterin production in OPCs
same,effect of phagocytosis block on clusterin upregulation by myelin debris or apoptotic cells in OPCs,[2]; 4 hours,internalization of the cargo is necessary to mediate the upregulation of clusterin
same,effect of phagocytosis block on clusterin upregulation by myelin debris or apoptotic cells in OPCs,"[2]; 4 hours, listed as CytoD",abrogated
OO [H2O2],clusterin expression in OPCs by qPCR (FIG. 7),[2],did not influence clusterin expression
same,clusterin expression in OPCs by qPCR (FIG. 12),[2],failed to induce changes in clusterin expression
CC/C(=C(\c1ccccc1)c1ccc(OCCN(C)C)cc1)c1ccccc1 [tamoxifen],percent of OPCs expressing YFP,OPCs (OLIG2+/PDGFRα+),95%
"Custirsen: ASO targeting clusterin in Phase 3 clinical trial; OGX-011 is 5-CAGCAGCAGAGTCTTCATCAT-3′ (SEQ ID NO: 11) (listed as DNA, chemistry not given here; listed as Homo sapiens)",levels of clusterin in patients,clusterin,safely and effectively reduce levels of clusterin
IL-9: interleukin 9 cytokine added exogenously (100 ng/ml) to differentiating OPCs,"Expression of Mbp, Plp, and Myrf by qPCR in clusterin-treated OPCs supplemented with IL-9",OPCs [3]; IL-9 100 ng/ml plus clusterin 8 μg/ml,prevented clusterin inhibition; also recorded: restored expression of these mature oligodendrocyte genes to a level similar as the untreated control
TNFα,clusterin expression in OPCs by qPCR (FIG. 7),[2],did not influence clusterin expression
same,clusterin expression in OPCs by qPCR (FIG. 12),[2],failed to induce changes in clusterin expression
"clusterin: recombinant clusterin, a secreted chaperone protein, containing an HIS-tag, added exogenously to OPCs","Expression of myelin markers (Mbp, Plp, Cnp, and Myrf) as determined by qPCR",OPCs [3]; recombinant clusterin 8 μg/ml vs vehicle (PBS),decreased; also recorded: striking decrease; also recorded: blocks OPC differentiation
same,secretion of growth factors and cytokines by OPCs,IL-9 secretion by OPCs,altered secretion of multiple proteins
same,IL-9 secretion by OPCs,IL-9 secretion by OPCs; 1-3 days,marked reduction; also recorded: blocked IL-9 release from OPCs
same,percentage of MBP positive oligolineage cells (immunofluorescence),OPCs [4],decrease; also recorded: fewer MBP-positive oligodendrocytes
same,OPC viability,OPCs [5],did not impact OPC viability; also recorded: not due to OPC death
B1,clusterin expression in OPCs by qPCR (FIG. 12),[2],failed to induce changes in clusterin expression
